# Read-outs that look alike come from different tables or passages of the source.
# How the values were obtained:
# [1] = target: T1, Human cytomegalovirus DNA polymerase (Human cytomegalovirus, UniProt P08546); assay: HCMV polymerase assay (AlphaLISA, IC50); assay type: biochemical; settings: polymerase assay of Example 190
# T1 construct: made in house; host or cells: SF21 insect cells (baculovirus vector)
# Experimental: Human cytomegalovirus and varicella zoster virus DNA polymerases were expressed via baculovirus vector in SF21 cells and purified. Heterodimeric nucleic acid substrate used in the herpesvirus polymerase reactions was generated by annealing a 59-mer template to a 17-mer digoxigenin-labeled primer. Polymerase (HCMV final concentration of 0.2 nM; VZV final concentration of 0.4 nM) was combined with an inhibitor compound or DMSO in assay buffer (10 mM HEPES, pH 7.5, 25 mM KCl, 25 mM NaCl, 5 mM MgCl2, 5% glycerol, 0.67 mg/ml bovine serum albuminutes, and 1 mM tris(2-carboxyethyl)phosphine), and this mixture was pre-incubated for 30 minutes at room temperature in 384-well microtiter plates. The polymerization reaction was initiated by the addition of template/primer substrate (final concentration: 1.6 nM), and dNTPs (final concentration: 24 nM dCTP, 24 nMdGTP, 16 nM dATP, 16 nM dTTP, and 0.8 nM biotin-dUTP). After 60 minutes incubation at 37° C., reactions were terminated with quench buffer (25 mM HEPES pH 7.5, 100 mM NaCl, 0.25% Tween-20, 12 mM EDTA, and 1 mg/ml bovine serum albumin). Incorporation of biotinylated UTP was detected with 2.5-5 ug/ml anti-DIG AlphaLISA acceptor beads and 5-10 ug/ml streptavidin AlphaLISA donor beads (Perkin Elmer). Compound effects were normalized to the window defined by the controls (DMSO only and pre-quenched wells), and were fit using a 4-parameter algorithm to report an IC50.
# [2] = test system: VZV in MeWo or MRC5 cells; assay: Viral qPCR assay VZV (V0/V1, V2/V3), EC50; assay type: cell-based; settings: Human alphaherpesvirus 3, MRC5, MRC5 cells, 10%; read-out: VZV Cell (EC50) MRC5 10%
# Experimental: (§1) Viral qPCR Assays (V0/V1)
# (§2) MRC5 cells, Vero cells, and MeWo cells were obtained from ATCC and were maintained at 37° C./5% CO2/90% relative humidity in Minimal Essential Medium with 10% fetal bovine serum, […] L-glutamine, 100 units/ml penicillin and 100 ug/ml streptomycin. Assay plates were prepared by dispensing compounds dissolved in DMSO into wells of 384 well collagen-coated plates using an ECHO acoustic dispenser. Each compound was tested in a 10-point, serial 3-fold dilution. Controls included uninfected cells and infected cells treated only with DMSO. Assays were initiated by mixing selected cells, in suspension, with virus, and dispensing 50 μl/well infected cells to pre-plated compounds. Plates were incubated at 37° C./5% CO2/90% relative humidity for ˜72 hrs to permit genomic replication, and infected cells were lysed by the addition of an equal volume of lysis buffer (10 mM Tris-HCl, pH8, 50 mM KCl, 2 mM MgCl2, 0.45% NP-40, 0.45% Tween-20, and 100 μg/ml proteinase K). An aliquot of the lysate was transferred to a 384-well PCR plate and incubated at 56° C. for 1 hour and then at 95° C. for 10 min. Levels of a viral gene and of the cellular control, PPIA (Thermo Fisher Assay ID=Hs04194521_s1), were measured in separate 10 μL qPCR assays using TaqMan® Gene Expression Master Mix (Applied Biosystems), and an 7900HT Fast Real-Time PCR System with 384-Well Block Module. 7-point, serial 10-fold dilutions of a plasmid standard were run on each plate to generate a standard curve, and genome copies numbers were calculated by plotting experimental Ct onto linear regression of the standard curve. Viral genome copy numbers were normalized by cellular control copy number, and compound effects were normalized to the window defined by the controls. Calculated % effects were fit using a 4-parameter algorithm, and EC50 was reported.
# (§3) Viral qPCR Assays (V2/V3)
# as §2, with “gene” for “gene and of the cellular control, PPIA (Thermo Fisher Assay ID=Hs04194521_s1),”, “in” for “in separate”, “Compound effects on viral” for “Viral”, “number” for “numbers were normalized by cellular control copy number, and compound effects”, “reported. • HCMV: Strain AD169 Street was assayed in MRC-5 cells and was used at 0.05-0.1 pfu/cell. The assays were performed in either growth media or in the same media with 50% fetal bovine serum. Primer-probe set was Thermo Fisher Assay ID=AIFATFK. • VZV: Strain Street was maintained as an infected cell stock in MRC-5 cells. It was assayed in MeWo or MRC5 cells and was used at 0.04-0.1 pfu/cell. […]” for “reported.”
# [3] = test system: HCMV Strain AD169 in MRC-5 cells; assay: Viral qPCR assay HCMV (V0/V1, V2/V3), EC50; assay type: cell-based
# Experimental: as §1, §2, §3
# as §2, with “gene” for “gene and of the cellular control, PPIA (Thermo Fisher Assay ID=Hs04194521_s1),”, “in” for “in separate”, “Compound effects on viral” for “Viral”, “number” for “numbers were normalized by cellular control copy number, and compound effects”, “reported. • HCMV: Strain AD169 Street was assayed in MRC-5 cells and was used at 0.05-0.1 pfu/cell. The assays were performed in either growth media or in the same media with 50% fetal bovine serum. Primer-probe set was Thermo Fisher Assay ID=AIFATFK. • VZV: Strain Street was maintained as an infected cell stock in MRC-5 cells. It was assayed in MeWo or MRC5 cells and was used at 0.04-0.1 pfu/cell. […]” for “reported.”
# [4] = test system: HSV-1 Strain F in Vero or MRC5 cells; assay: Viral qPCR assay HSV-1 (V0/V1, V2/V3), EC50; assay type: cell-based; settings: Human alphaherpesvirus 1, MRC5, MRC5 cells, 10%; read-out: HSV1 Cell (EC50) MRC5 10%
# Experimental: as §1, §2, §3
# as §2, with “gene” for “gene and of the cellular control, PPIA (Thermo Fisher Assay ID=Hs04194521_s1),”, “in” for “in separate”, “Compound effects on viral” for “Viral”, “number” for “numbers were normalized by cellular control copy number, and compound effects”, “reported. • HCMV: Strain AD169 Street was assayed in MRC-5 cells and was used at 0.05-0.1 pfu/cell. The assays were performed in either growth media or in the same media with 50% fetal bovine serum. Primer-probe set was Thermo Fisher Assay ID=AIFATFK. • VZV: Strain Street was maintained as an infected cell stock in MRC-5 cells. It was assayed in MeWo or MRC5 cells and was used at 0.04-0.1 pfu/cell. […]” for “reported.”
# [5] = Human betaherpesvirus 5, AD169, MRC5, viral qPCR assay of Example 191, read-out: HCMV Cell (EC50)
# T1 sequence (P08546 whole entry): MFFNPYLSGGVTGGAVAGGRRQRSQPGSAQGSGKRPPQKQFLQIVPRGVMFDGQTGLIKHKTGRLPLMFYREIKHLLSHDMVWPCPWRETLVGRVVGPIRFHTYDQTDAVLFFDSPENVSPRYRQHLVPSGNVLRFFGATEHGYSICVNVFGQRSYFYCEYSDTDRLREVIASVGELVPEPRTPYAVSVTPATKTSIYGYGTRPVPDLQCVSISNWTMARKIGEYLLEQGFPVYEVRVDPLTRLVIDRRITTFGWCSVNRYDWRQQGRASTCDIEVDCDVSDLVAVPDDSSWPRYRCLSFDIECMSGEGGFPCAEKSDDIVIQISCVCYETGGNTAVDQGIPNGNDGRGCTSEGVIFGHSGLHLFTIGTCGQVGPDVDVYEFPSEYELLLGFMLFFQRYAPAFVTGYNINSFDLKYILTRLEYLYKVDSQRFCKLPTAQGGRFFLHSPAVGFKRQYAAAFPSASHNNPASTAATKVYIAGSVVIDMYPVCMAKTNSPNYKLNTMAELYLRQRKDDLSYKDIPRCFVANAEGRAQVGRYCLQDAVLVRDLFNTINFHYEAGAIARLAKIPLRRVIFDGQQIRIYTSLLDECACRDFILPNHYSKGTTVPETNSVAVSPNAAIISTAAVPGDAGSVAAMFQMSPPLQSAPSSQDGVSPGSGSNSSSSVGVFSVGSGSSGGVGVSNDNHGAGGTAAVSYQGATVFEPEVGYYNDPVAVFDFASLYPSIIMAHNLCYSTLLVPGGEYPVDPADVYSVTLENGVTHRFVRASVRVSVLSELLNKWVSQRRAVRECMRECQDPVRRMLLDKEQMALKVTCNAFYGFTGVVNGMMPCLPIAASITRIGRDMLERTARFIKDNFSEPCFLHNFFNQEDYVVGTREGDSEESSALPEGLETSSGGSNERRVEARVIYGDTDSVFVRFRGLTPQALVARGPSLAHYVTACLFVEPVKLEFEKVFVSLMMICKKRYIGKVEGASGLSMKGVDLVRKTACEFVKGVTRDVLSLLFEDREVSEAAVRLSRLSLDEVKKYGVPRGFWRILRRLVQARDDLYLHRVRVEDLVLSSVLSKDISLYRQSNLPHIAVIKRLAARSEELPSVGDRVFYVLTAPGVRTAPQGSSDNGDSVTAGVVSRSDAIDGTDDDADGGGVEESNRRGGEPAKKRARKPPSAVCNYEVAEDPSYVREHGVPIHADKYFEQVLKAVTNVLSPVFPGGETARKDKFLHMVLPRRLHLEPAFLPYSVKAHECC
Structure (SMILES),IC50 [1] [nM],EC50 [2] [nM],"EC50 [3, 5] [nM]",EC50 [4] [nM],"EC50 ([3]; Human betaherpesvirus 5, AD169, MRC5, read-out: HCMV Cell (EC50)) [nM]"
CC(=O)N1CCC(Oc2cc(C(=O)NCc3ccc(Cl)cc3)ncc2-c2cnn(C)n2)CC1 [Compound 7],122,707,552,530,–
Cc1cc(-c2cnc(C(=O)NCc3ccc(Cl)cc3)cc2O[C@H]2CCN3C(=O)OC[C@@H]3C2)sn1 [Compound 23],1.16,59.6,102,25.7,–
CC(=O)N1CCC(Oc2cc(C(=O)NCc3ccc(Cl)cc3)ncc2-c2cnsc2)CC1 [Compound 47],136,–,1160,–,–
CC(=O)N1CCC(Oc2cc(C(=O)NCc3ccc(Cl)cc3)ncc2-c2cn(C)cn2)CC1 [Compound 50],37.3,243,461,181,–
CC(=O)N1CCC(Oc2cc(C(=O)NCc3ccc(Cl)cc3)ncc2-c2cncs2)CC1 [Compound 51],48.5,170,369,164,–
CC(=O)N1CCC(Oc2cc(C(=O)NCc3ccc(Cl)cc3)ncc2-c2cnoc2)CC1 [Compound 53],56.5,–,1840,–,–
CC(=O)N1CCC(Oc2cc(C(=O)NCc3ccc(Cl)cc3)ncc2-c2cn(C)c(CCO)n2)CC1 [Compound 55],65.4,–,781,–,–
CC(=O)N1CCC(Oc2cc(C(=O)NCc3ccc(Cl)cc3)ncc2-c2ccn(CS(C)(=O)=O)n2)CC1 [Compound 56],68.8,1430,687,847,–
CC(=O)N1CCC(Oc2cc(C(=O)NCc3ccc(Cl)cc3)ncc2-c2cnsn2)CC1 [Compound 58],155,–,1810,–,–
CC(=O)N1CCC(Oc2cc(C(=O)NCc3ccc(Cl)cc3)ncc2-c2cn(C)nn2)CC1 [Compound 59],151,–,976,–,–
CC(=O)N1CCC(Oc2cc(C(=O)NCc3ccc(Cl)cc3)ncc2-c2ccsn2)CC1 [Compound 60],197,–,1490,–,–
O=C(NCc1cc(F)c(Cl)c(F)c1)c1cc(O[C@H]2CCN3C(=O)OC[C@@H]3C2)c(-c2cnn(C(F)F)c2)cn1 [Compound 80],8.76,401,248,247,–
O=C(NCc1ccc(Br)cc1)c1cc(O[C@H]2CCN3C(=O)OC[C@@H]3C2)c(-c2cnn(C(F)F)c2)cn1 [Compound 83],12,147,549,274,–
O=C(NCc1ccc(Cl)cc1Cl)c1cc(O[C@H]2CCN3C(=O)OC[C@@H]3C2)c(-c2cnn(C(F)F)c2)cn1 [Compound 85],65.3,4710,888,1640,–
C#Cc1ccc(CNC(=O)c2cc(O[C@H]3CCN4C(=O)OC[C@@H]4C3)c(-c3cnn(C(F)F)c3)cn2)cc1 [Compound 88],184,1180,616,785,–
O=C(NCc1ccc(I)cc1)c1cc(O[C@H]2CCN3C(=O)OC[C@@H]3C2)c(-c2cnn(C(F)F)c2)cn1 [Compound 89],187,–,1520,–,–
O=C(NCc1ccc(Cl)c(F)c1F)c1cc(O[C@H]2CCN3C(=O)OC[C@@H]3C2)c(-c2cnn(C(F)F)c2)cn1 [Compound 92],10.3,339,227,200,–
Cc1cnc(C(=O)NCc2ccc(Cl)cc2)cc1OC1CCC(=O)N(C)CC1 (stereo not drawn) [Compound 99],407,–,4010,–,–
O=C(NCc1ccc(C(F)(F)F)cc1)c1cc(O[C@H]2CCN3C(=O)OC[C@@H]3C2)c(-c2cnn(C(F)F)c2)cn1 [Compound 104],273,–,5980,–,–
O=C(NCc1ccc(Cl)cc1)c1cc(O[C@H]2CCN3C(=O)OC[C@@H]3C2)c(N2CCOCC2)cn1 [Compound 116],84.8,3600,791,2420,–
O=C(NCc1ccc(Cl)cc1)c1cc(O[C@H]2CCN3C(=O)OC[C@@H]3C2)c(N2CC3(CC(O)C3)C2)cn1 [Compound 118],38.8,–,579,–,–
CC(C)(N)C1CCN(c2cnc(C(=O)NCc3ccc(Cl)cc3)cc2O[C@H]2CCN3C(=O)OC[C@@H]3C2)C1 (stereo partly drawn) [Compound 119],65.2,–,747,–,–
CC(C)(O)C1CN(c2cnc(C(=O)NCc3ccc(Cl)cc3)cc2O[C@H]2CCN3C(=O)OC[C@@H]3C2)C1 [Compound 121],36.5,–,257,–,–
CC(C)(O)C12CC(C1)N(c1cnc(C(=O)NCc3ccc(Cl)cc3)cc1O[C@H]1CCN3C(=O)OC[C@@H]3C1)C2 [Compound 123],160,–,1310,–,–
C[C@@H]1CN(c2cnc(C(=O)NCc3ccc(Cl)cc3)cc2O[C@H]2CCN3C(=O)OC[C@@H]3C2)C[C@H](C)[C@]1(C)O [Compound 124],172,6050,1270,2850,–
CS(=O)(=O)c1cnc(C(=O)NCc2ccc(Cl)cc2)cc1O[C@H]1CCN2C(=O)OC[C@@H]2C1 [Compound 147],804,–,12700,–,–
CC(=O)N1CCC(Oc2cc(C(=O)NCc3ccc(Cl)cc3)ncc2-c2cnn(C(F)F)c2)CC12CC2 (stereo not drawn) [Compound 160],135,–,1400,–,–
C[C@@H]1CN(C)CCN1c1cc(C(=O)NCc2ccc(Cl)cc2)nc(-c2cnn(CCO)c2)c1 [Compound 177],601,–,–,–,1410
COCCOC(=O)N(Cc1ccc(Cl)cc1)C(=O)c1cc(O[C@H]2CCN3C(=O)OC[C@@H]3C2)c(-c2cnn(C(F)F)c2)cn1 [Compound 179],107,–,1390,–,–
CN1CCC(C(=O)OCN(Cc2ccc(Cl)cc2)C(=O)c2cc(O[C@H]3CCN4C(=O)OC[C@@H]4C3)c(-c3cnn(C(F)F)c3)cn2)CC1 [Compound 183],201,–,150,–,–

# Source: patent publication US20240067657A1, “AMIDO-SUBSTITUTED PYRIDYL COMPOUNDS AND METHODS OF USE THEREOF FOR THE TREATMENT OF HERPESVIRUSES” (Merck Sharp & Dohme LLC, priority 2020, published 2024)
